Data reported in patent US7410949B2, “Neuropeptide-2 receptor (Y-2R) agonists and uses thereof” (Hoffmann-La Roche Inc., priority 2005, dated 2008).
*1 amine or outer side, *2 acyl side, *3 side chain or, on linkers, in order; H or OH if unused. Where a SMILES comes first, the peptide text is derived from it. Bridges are numbered along the chain shown (N, C = ends). [ ]: non-standard residue; d: D form. X1 = O=C(COc1ccc2[nH]cc(CCN[*:1])c2c1)[*:2]; Nle = CCCC[C@H](N)C(=O)O

Assays:
[1] = system: C57BL/6J male mice or DIO (diet-induced obese) male mice; test: In Vivo Reduction of Food Intake Assay; set-up: species or system mouse
Procedure: In this Example, compounds of Examples 5, 44, 73 and 74 were administered to four sets of mice in four separate experiments to measure effect on food intake. C57BL/6J male mice or DIO (diet-induced obese) male mice were used in the experiments, with eight mice per experimental group. The mice were maintained on a regular light cycle (6 AM—ON; 6 PM—OFF). The mice were fasted for 24 hours prior to testing with ad lib access to water. During the test, mice were housed one per cage.
The compounds of Examples 5 and 44 were administered intraperitoneally; and the compounds of Examples 73 and 74 were administered subcutaneously. In each Figure, cumulative and time interval food consumptions were measured in individual mice. Mean food consumption and percent change from vehicle were calculated for each time interval. Data was analyzed by using two-tailed Student t-test.

Y1R = target: T1, Y1R (Homo sapiens, UniProt P25929); test: FLIPR assay, Y1R; assay type: cell-based
T1 sequence (P25929 1-384): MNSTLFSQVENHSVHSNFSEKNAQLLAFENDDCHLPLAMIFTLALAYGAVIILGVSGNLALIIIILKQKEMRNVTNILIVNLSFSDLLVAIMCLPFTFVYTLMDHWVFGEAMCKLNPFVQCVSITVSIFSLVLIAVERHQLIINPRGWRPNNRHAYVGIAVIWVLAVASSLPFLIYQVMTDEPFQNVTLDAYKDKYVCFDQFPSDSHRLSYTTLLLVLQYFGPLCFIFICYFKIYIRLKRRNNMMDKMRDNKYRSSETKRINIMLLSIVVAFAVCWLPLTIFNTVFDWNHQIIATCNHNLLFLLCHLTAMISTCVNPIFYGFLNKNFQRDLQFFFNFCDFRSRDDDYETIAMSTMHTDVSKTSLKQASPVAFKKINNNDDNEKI
Procedure: (§1) Loading Buffer (Calcium-3 Assay Kit, Molecular Devices) was prepared by dissolving the contents of one vial (Express Kit) into 1000 ml Hank's Balanced Salt Solution containing 20 mM HEPES and 5 mM probenecid. Aliquots of 25 μL of diluted dye was dispensed into the cell plates and the plates are then incubated for 1 hour at 37° C.
(§2) During the incubation, test compounds were prepared at 3.5× the desired concentration in HBSS (20 mM HEPES)/0.05% BSA/1% DMSO and transferred to a 384 well plate for use on FLIPR.
(§3) After incubation, both the cell and compound plates were brought to the FLIPR and 20 μL of the diluted compounds were transferred to the cell plates by the FLIPR. During the assay, fluorescence readings were taken simultaneously from all 384 wells of the cell plate every 1.5 seconds. Five readings were taken to establish a stable baseline, and then 20 μL of sample was rapidly (30 μL/sec) and simultaneously added to each well of the cell plate. The fluorescence was continuously monitored before, during and after sample addition for a total elapsed time of 100 seconds. Responses (increase in peak fluorescence) in each well following addition was determined. The initial fluorescence reading from each well, prior to ligand stimulation, was used as a zero baseline value for the data from that well. The responses are expressed as % of maximal response of the positive control.

Y4R = Y4R (Homo sapiens, UniProt P50391); test: FLIPR assay, Y4R; assay type: cell-based
Sequence of Y4R (P50391 whole entry): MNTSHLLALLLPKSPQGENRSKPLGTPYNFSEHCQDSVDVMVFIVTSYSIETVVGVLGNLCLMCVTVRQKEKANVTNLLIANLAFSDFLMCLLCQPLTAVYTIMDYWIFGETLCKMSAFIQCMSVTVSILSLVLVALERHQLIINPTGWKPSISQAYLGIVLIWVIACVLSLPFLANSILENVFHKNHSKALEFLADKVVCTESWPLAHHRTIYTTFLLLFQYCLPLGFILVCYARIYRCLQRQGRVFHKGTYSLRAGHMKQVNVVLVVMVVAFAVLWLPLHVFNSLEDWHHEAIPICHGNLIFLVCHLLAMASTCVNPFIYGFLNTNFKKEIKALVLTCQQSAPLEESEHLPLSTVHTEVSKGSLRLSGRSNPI
Procedure: as §1, §2, §3

hypothalamic slices = hypothalamic slices in vitro; cited from earlier work
[2] = administered intraperitoneally, mice fasted 24 hours, 1, 2, 4, 6 and 24 hours after dosing
[3] = administered subcutaneously, mice fasted 24 hours, 1, 2, 4, 6, 24 hours and longer intervals

Compound	reduction of food intake [1, 2]	reduction of food intake [1, 3]	other results
H-Ile-Lys-Pqa-Arg-His-Tyr-Leu-Asn-Leu-Val-Thr-Arg-Gln-Arg-Tyr-NH2 [Example 5]	reduction of food intake was demonstrated		
CCCC[C@H](NC(=O)[C@@H](NC(C)=O)[C@@H](C)CC)C(=O)NCCc1c[nH]c2ccc(OCC(=O)N[C@@H](CCCNC(=N)N)C(=O)N[C@@H](Cc3c[nH]cn3)C(=O)N[C@@H](Cc3ccc(O)cc3)C(=O)N[C@H]3CCCCNC(=O)C[C@@H](C(=O)N[C@@H](CCCNC(=N)N)C(=O)N[C@@H](CCC(N)=O)C(=O)N[C@@H](CCCNC(=N)N)C(=O)N[C@@H](Cc4ccc(O)cc4)C(N)=O)NC(=O)[C@H](C(C)C)NC(=O)[C@H](CC(C)C)NC(=O)[C@H](CC(N)=O)NC3=O)cc12 [Example 53] (Ac-I[Nle][X1]RHYKNLVDRQRY-NH2; lactam 7-11)			EC50 (Y1R): > 5 µM; EC50 (Y4R): > 5 µM
N=C(N)NCCC[C@H](NC(=O)CC1(CC(=O)N2CCN(C3c4ccccc4NC(=O)c4ccccc43)CC2)CCCC1)C(=O)NCCn1c(=O)n(-c2ccccc2)n(-c2ccccc2)c1=O (stereo partly shown) [BIIE0246]			NPY release (hypothalamic slices): increases NPY release
Ac-Ile-Nle-Pqa-Arg-His-Tyr-Leu-Asn-Leu-Val-Thr-Arg-Gln-Arg-Tyr-NH2 [Example 44]	reduction of food intake was demonstrated		
PEG (10,000)-Ile-Nle-Pqa-Arg-His-Tyr-Leu-Asn-Leu-Val-Thr-Arg-Gln-Arg-Tyr-NH2 [Example 73]		reduction of food intake was demonstrated	
PEG (30,000)-Ile-Nle-Pqa-Arg-His-Tyr-Leu-Asn-Leu-Val-Thr-Arg-Gln-Arg-Tyr-NH2 [Example 74]		reduction of food intake was demonstrated	
